Assay results reported in patent US20050043262A1, “Novel specific inhibitor of the cyclin kinase inhibitor p21Waf1/Cip1 and methods of using the inhibitor” (priority 2000, published 2005).
In the oligonucleotide strings, read from the 5' end, every base follows the letter of its sugar. An asterisk marks phosphorothioate; unmarked linkages are phosphodiester. Other units and linkages are bracketed, terminal groups are in braces. A string of capitals states the bases alone. d = 2'-deoxy (DNA)

Tests used:
[1] = system: Rb; test: Rb hyperphosphorylation by Western blot in A431 cells; type: cell-based, human; settings: 400 nM, 10% serum 6 and 24 hours
Experimental: Upon activation by cyclin/cdk complexes, the Rb protein in turn becomes phosphorylated, causing it to release the transcription factors known as E2F, leading to early oncogene expression and ultimately to cell growth. An effect of p21^Waf1/Cip1 on cdk/Rb interaction would be evident by a change in phosphorylation state of the Rb protein: this property can be assessed by examining small changes in gel mobility of this protein. A431 cells were transfected with 400 nM antisense p21^Waf1/Cip1 oligodeoxynucleotide (SEQ. ID NO.:1) or with lipofectin only (no DNA). After overnight incubation in serum-free medium, the cells were stimulated with complete media for 6 or 24 hours, lysed, and the lysates were Western blotted with Rb antibody.

[2] = system: p21^Waf1/Cip1; test: p21 protein level by Western blot in A10 VSM cells; type: cell-based, rat; settings: for p21 levels after ionizing radiation: 12 Gy, up to 4 hours
Experimental: Western blots: Cells were grown to confluence in 6 cm culture dishes and serum deprived. After transfection and or treatment with appropriate agonist, the cells were washed with phosphate-buffered saline and lysed in lysis buffer and the supernatant was Western blotted as described (Weiss et al., 1998 Am. J. Physiol., 274, p. C1521-C1529).
To determine whether antisense transfection with p21^Waf1/Cip1 antisense oligonucleotides indeed decreases p21^Waf1/Cip1 protein levels, p21^Waf1/Cip1 levels after antisense transfection were examined employing the fact that PMA is a potent inducer of p21^Waf1/Cip1 (Huang et al., 1995 Proc. Natl. Acad. Sci. U.S.A., 92, p. 4793-4797; Michieli et al., 1994 Cancer Res., 54, p. 3391-3395). Since p21^Waf1/Cip1 protein levels were induced in VSM cells between 2 and 6 hours after PMA stimulation (FIG. 4), the p21^Waf1/Cip1 levels in transfected cells after similar times of PMA stimulation were examined. […] There was no effect of the p21^Waf1/Cip1 sense (SEQ. ID NO.:2) control oligodeoxynucleotide on cellular p21^Waf1/Cip1 levels (compare with FIG. 4).
To check for specificity of protein inhibition by the antisense p21^Waf1/Cip1 oligodeoxynucleotide (SEQ. ID NO.: 1), protein levels of p21^Waf1/Cip1 and p27^Kip1 after transfection with antisense p21^Waf1/Cip1 oligodeoxynucleotide (SEQ. ID NO.:1) were examined. In these experiments the ability of antisense oligodeoxynucleotides (SEQ. ID NO.:1) to inhibit maximally stimulated CKI expression (see FIG. 4) was assessed. The cells were stimulated with PMA for 4 hours at various times after overnight serum starvation.
Western blots: Cells were grown to confluence in 6 cm culture dishes and serum deprived. After transfection and or treatment with appropriate agonist, conditioned medium was removed and saved and the cells were washed with phosphate-buffered saline and lysed in lysis buffer. Both supernatant and cell lysate were normalized to the lysate protein concentrations and Western blotted as described (Weiss R H, et al. Am J Physiol 274:C1521-C1529, 1998).
To confirm that p21 levels were increased after exposure to ionizing radiation, and that the oligonucleotides inhibit this phenomenon in A10 cells, p21 protein levels under these conditions were assayed. […] With the exception of the initial decrease in p21 levels at ½ and 1 hours, the results with the control oligonucleotides were similar to that observed in non-transfected cells.
Adriamycin is a prototypical DNA damaging agent used in the treatment of a variety of cancers. The predominantly G2 arrest seen after Adriamycin treatment has been associated with an increase in p21 levels in some cell lines (Siu W Y, et al. FEBS Lett 461:299-305, 1999). In order to determine whether similar augmentation of p21 is seen in A10 VSM cells and whether the antisense p21 oligonucleotide is inhibiting this response, these cells were treated with Adriamycin either with or without first transfecting the cells with the antisense and control oligonucleotides. Confluent VSM cells were transfected with antisense oligonucleotide to p21 or random sequence control oligonucleotide as described above. After 24 hours, the cells were exposed to Adriamycin (500 ng/ml), lysed at the indicated times after exposure, and Western blotted with p21 antibody.
Using a random sequence phosphorothioate oligodeoxynucleotide (SEQ. ID NO.:3) as a control, the effect of the antisense oligodeoxynucleotide to p21 (400 nM) on p21 and α-actin protein expression in A10 VSM cells, was examined. The lysates, normalized for protein content, were Western blotted with either p21 or α-actin antibody.

[3] = system: fibronectin; test: Fibronectin production and secretion (immunoprecipitation/immunoblot); type: cell-based, rat; settings: VSM cells, 400 nM, TGF-β 0.1 to 10 ng/ml
Experimental: Immunoprecipitations: VSM cells were grown to confluence. After incubation under appropriate conditions, the cells were washed with ice-cold phosphate-buffered saline and immediately lysed in lysis buffer (20 mM Tris [pH7.5], 150 mM NaCl, 1 mM EDTA, 1 mM EGTA, 1% Triton X-100, 2.5 mM sodium pyrophosphate, 1 mM β-glycerolphosphate, 1 mM Na3VO4, 1 μg/ml Leupeptin, 1 mM PMSF) at 4° C. The cells were scraped off with a rubber spatula and the insoluble material removed by centrifuging at 10,000× g for 10 min at 4° C. Protein concentration was determined by A595, and lysates containing equal amounts of protein were incubated with […] anti-fibronectin antibody at 4° C. overnight. Protein A-Sepharose beads were added and the resulting mixture was incubated for an additional 2 hours at 4° C. The beads were centrifuged in a microfuge for 20 sec, and the pellet was washed 3 times with cold lysis buffer. The supernatant was decanted, gel loading buffer was added to the precipitate, and the solution was boiled for 5 min, and centrifuged. The supernatant was electrophoresed on a 7.5% SDS-polyacrylamide gel with equal volumes of sample per lane. The proteins were electrophoretically transferred to nitrocellulose and probed with fibronectin antibody.
The p21 influences on matrix protein secretion in VSM cells were determined. […]

Substance	serum-induced Rb hyperphosphorylation versus no-DNA control [1]	p21 protein level ([2]; A10 VSM cells, 400 nM)	p21 levels after ionizing radiation ([2]; A10 VSM cells)	p21^Waf1/Cip1 protein after maximal stimulation with PMA ([2]; A10 VSM cells, PMA for 4 hours)	PMA-induced p21^Waf1/Cip1 levels ([2]; A10 VSM cells, PMA stimulation up to 6 hours after transfection)	Adriamycin-induced increase of p21 levels ([2]; transfected VSM cells, Adriamycin 500 ng/ml)	TGF-β-mediated fibronectin production and secretion [3]
5′-GACATCACCAGGATCGGACAT-3′	no difference	marked inhibition	consistently low	completely inhibited	significant attenuation	marked attenuation	decreases
5′-TGG ATC CGA CAT GTC AGA-3′ (dT*dG*dG*dA*dT*dC*dC*dG*dA*dC*dA*dT*dG*dT*dC*dA*dG*dA) [random sequence control oligonucleotide, reference compound]	–	–	initial slight inhibition	–	–	–	–
